Experimental data: US5939387A, “Method of treating insulin resistance” (Eli Lilly and Company, priority 1996, dated 1999)
*: point of attachment. p‑methylhippuroyl = Cc1ccc(C(=O)NCC(=O)*)cc1

What was measured:
[1] = system: Male Fischer 344 rats 26 months of age; experiment: Aged Rat Study (oral glucose tolerance test); assay type: in vivo; details: 2 μg/kg sc daily for 6 weeks
Procedure: Animals: Male Fischer 344 rats 26 months of age were randomly assigned to three treatment groups (8 animals per group). Animals were housed in individual cages in a temperature and humidity-controlled environment and exposed to 12 h light/12 h dark lighting schedule (lights on at 0600 h). Animals were fed ad libitum on a daily basis.
Treatments: Animals received daily injection (sc., 0.5 ml at 0700 h) of vehicle; active compound, 2 μg/kg body weight for six weeks. At the end of the treatment period and one day prior to testing, food was removed and animals were fasted for 16 hours. Glucose tolerance test was initiated at 0700 h in conscious and freely moving rats. Blood was collected by tail clipping method. A control blood sample (0.2 mL) was collected before ingesting glucose (2.5 g/kg body weight). Subsequent blood samples were collected at 30, 60, 90 and 120 min. after glucose ingestion. Blood was collected on ice and glucose concentrations were determined by bichromatic analysis using the IL Monarch Chemistry Systems (Cat. # 35199, Instrumentation Laboratory, Mass.). Plasma was separated and samples were kept frozen (-20° C.) until assay for insulin concentrations using double antibody radioimmuonoassay. […]
Area under the response curve was calculated using the trapezoidal method and data were analyzed by ANOVA with Duncan's multiple range test.

[2] = system: Zucker Diabetic Fatty (ZDF/Gmi-fa/fa) male rats; experiment: ZDF Male Rat Assay; assay type: in vivo; details: for Total Body Mass, final weight / Epididymal Fat weight / Lean Mass, final weight: ZDF rats; for Total Body Mass, final weight: mean of 8; for Epididymal Fat weight / Lean Mass, final weight: 6 to 14 weeks of age
Text: A growth hormone releasing agent is continuously administered to Zucker diabetic male rats subcutaneously by use of an "Alzet" mini osmotic pump. The treatment was started at approximately 6 weeks of age and continued for approximately 6-8 weeks. The experiment was designed to allow the study of changes in the typical plasma glucose and insulin level profiles with the progression of the diabetic disease state.
Zucker Diabetic Fatty (ZDF/Gmi™-fa/fa) male rats were obtained from Genetic Models Inc. (Indianapolis, Ind.). The rats were maintained on Purina Formula 5008 rat chow (Purina Mills, Inc., St. Louis, Mo.) and housed in a light controlled room of alternating 12 hour cycles of light and dark. Rats were singly housed and given free access to food and water. At 5 weeks of age, an oral glucose tolerance test (OGTT: 16 hr fast, oral glucose concentration at 2.5 grams/kg body weight; Butler dextrose solution 50%, lot # 3342, Ft. Collins, Colo.; time points at 0, 30, 60, and 120 minutes) was given to each rat and their plasma assayed for glucose and insulin levels. At 6 weeks of age Alzet minipumps, containing a 1.5 inch polyethylene tube extensions (Model 2001, lot # 040401, 1.0 μl/hr, 7 days; Alza Corporation, Palo Alto, Calif.) were implanted subcutaneously. Animals were anesthetized with isoflurane at approximately 2-3% in oxygen. Each rat was shaved and a Povidone Iodine scrub was used at the site of implantation. A small incision was made above and just posterior to the shoulder. A small pocket was made and the pump placed in so the delivery port was away from the incision. The incision was then closed with wound clips and the rat observed and kept warm until awake. At the end of 7 days the pumps were removed from the rat and a new pump implanted subcutaneously as previously described. Pumps contained vehicle (PBS) or a growth hormone releasing agent (8 rats/group).
The GH releasing agent was prepared at concentrations of 625 and 62.5 μg/mL and loaded into Alzet pumps using sterile techniques. Body weight and food consumption were monitored once a week. Rats were bled from the tail for plasma glucose, insulin, and growth hormone levels weekly. One week prior to sacrificing the rats, an I.P. injection of tetracycline was given to each rat and then again the day before sacrificing (20 mg/mL; 0.5 mL/animal) to determine bone growth.
Assays: Plasma glucose concentrations were determined by the glucose hexokinase method (IL Test GLucose, lot # I1040502; Instrumentation Laboratory Company, Lexington, Mass.) with a model 2000 Monarch (Instrumentation Laboratory Company, Lexington, Mass.). Insulin was determined with a Coat-a-Count kit (Diagnostic Products Corporation, Los Angeles, Calif.) using a rat insulin standard (Lilly Research Laboratories, Indianapolis, Ind.). Glucagon was assayed with a double antibody procedure using guinea pig anti-glucagon (Catalog no. 1032; Linco Research, St. Louis, Mo.), goat anti-guinea pig (lot # T67-7GZ-237); Lilly Research Laboratories, Indianapolis, Ind.) and ^125 I-glucagon (DuPont New England Nuclear, Wilmington, Del.). Growth hormone was assayed using rat growth hormone standard (purchased from Parlow, Torrance Calif.; rGH-RP-2, lot AFP-3190B), anti rGH (purchased from Parlow, Torrance Calif.; rGH-s-r, lot AFP411S), ^125 I-rGH (Corning-Hazelton, Vienna, Va.) and protein A IGSL100 (Enzyme Center, Malden, Mass.).

[3] = age 6 weeks, 0.001 μg/min continuous infusion
[4] = age 6 weeks, 0.01 μg/min continuous infusion
[5] = age 7 weeks, 0.001 μg/min continuous infusion
[6] = age 7 weeks, 0.01 μg/min continuous infusion
[7] = age 8 weeks, 0.001 μg/min continuous infusion
[8] = age 8 weeks, 0.01 μg/min continuous infusion
[9] = age 9 weeks, 0.001 μg/min continuous infusion
[10] = age 9 weeks, 0.01 μg/min continuous infusion
[11] = age 10 weeks, 0.001 μg/min continuous infusion
[12] = age 10 weeks, 0.01 μg/min continuous infusion
[13] = age 11 weeks, 0.001 μg/min continuous infusion
[14] = age 11 weeks, 0.01 μg/min continuous infusion
[15] = age 12 weeks, 0.001 μg/min continuous infusion
[16] = age 12 weeks, 0.01 μg/min continuous infusion
[17] = age 13 weeks, 0.001 μg/min continuous infusion
[18] = age 13 weeks, 0.01 μg/min continuous infusion

p-methyl hippuroyl Leu(27) (1-44)OH hGHRH ({p‑methylhippuroyl}-YADAIFTNSYRKVLGQLSARKLLQDILSRQQGESNQERGARARL-OH) [GHRH Analog, functional analog of GHRH disclosed in EP 511 003, agent capable of stimulating growth hormone release]
Plasma Glucose, oral glucose tolerance test ([1]; time 0 min): 104.2 mg/dL | Plasma Insulin, oral glucose tolerance test ([1]; time 0 min): 1.26 ng/mL | Plasma Glucose, oral glucose tolerance test ([1]; time 30 min): 148.4 mg/dL | Plasma Insulin, oral glucose tolerance test ([1]; time 30 min): 1.64 ng/mL | Plasma Glucose, oral glucose tolerance test ([1]; time 60 min): 154.8 mg/dL | Plasma Insulin, oral glucose tolerance test ([1]; time 60 min): 1.92 ng/mL | Plasma Glucose, oral glucose tolerance test ([1]; time 120 min): 148.1 mg/dL | Plasma Insulin, oral glucose tolerance test ([1]; time 120 min): 1.41 ng/mL | AUC, area under the plasma glucose vs. time curve ([1]; trapezoidal method): 16,833.80 mg. min/dL | AUC, area under the plasma insulin vs. time curve ([1]; trapezoidal method): 196.25 ng·min/mL | Total Body Mass, final weight ([2]; 0.001 μg/min continuous sc infusion from 6 to 14 weeks of age): 327.06 g | Epididymal Fat weight ([2]; 0.001 μg/min infusion): 0.25 g | Lean Mass, final weight ([2]; 0.001 μg/min infusion): 327.06 g | Total Body Mass, final weight ([2]; 0.01 μg/min continuous sc infusion from 6 to 14 weeks of age): 388.16 g | Epididymal Fat weight ([2]; 0.01 μg/min infusion): 0.33 g | Lean Mass, final weight ([2]; 0.01 μg/min infusion): 388.16 g | Mean Plasma Glucose [2, 3]: 139.99 mg/dL | Mean Plasma Insulin [2, 3]: 9.81 ng/mL | Mean Plasma Glucose [2, 4]: 139.86 mg/dL | Mean Plasma Insulin [2, 4]: 11.21 ng/mL | Mean Plasma Glucose [2, 5]: 155.34 mg/dL | Mean Plasma Insulin [2, 5]: 23.91 ng/mL | Mean Plasma Glucose [2, 6]: 148.68 mg/dL | Mean Plasma Insulin [2, 6]: 24.76 ng/mL | Mean Plasma Glucose [2, 7]: 183.41 mg/dL | Mean Plasma Insulin [2, 7]: 27.33 ng/mL | Mean Plasma Glucose [2, 8]: 165.01 mg/dL | Mean Plasma Insulin [2, 8]: 26.81 ng/mL | Mean Plasma Glucose [2, 9]: 331.91 mg/dL | Mean Plasma Insulin [2, 9]: 21.11 ng/mL | Mean Plasma Glucose [2, 10]: 215.49 mg/dL | Mean Plasma Insulin [2, 10]: 24.23 ng/mL | Mean Plasma Glucose [2, 11]: 389.18 mg/dL | Mean Plasma Insulin [2, 11]: 20.18 ng/mL | Mean Plasma Glucose [2, 12]: 235.91 mg/dL | Mean Plasma Insulin [2, 12]: 27.85 ng/mL | Mean Plasma Glucose [2, 13]: 392.65 mg/dL | Mean Plasma Insulin [2, 13]: 20.98 ng/mL | Mean Plasma Glucose [2, 14]: 232.89 mg/dL | Mean Plasma Insulin [2, 14]: 30.05 ng/mL | Mean Plasma Glucose [2, 15]: 496.75 mg/dL | Mean Plasma Insulin [2, 15]: 21.48 ng/mL | Mean Plasma Glucose [2, 16]: 317.11 mg/dL | Mean Plasma Insulin [2, 16]: 36.45 ng/mL | Mean Plasma Glucose [2, 17]: 446.03 mg/dL | Mean Plasma Insulin [2, 17]: 16.29 ng/mL | Mean Plasma Glucose [2, 18]: 248.28 mg/dL | Mean Plasma Insulin [2, 18]: 29.92 ng/mL | Mean Plasma Glucose ([2]; age 14 weeks, 0.001 μg/min continuous infusion): 461.40 mg/dL | Mean Plasma Glucose ([2]; age 14 weeks, 0.01 μg/min continuous infusion): 229.36 mg/dL
